Reference: ChEMBL document CHEMBL1201861, “Genomics of Drug Sensitity in Cancer screening data, Wellcome Trust Sanger Institute”

Tests used:
Assay in all cases: cells
DB = type: functional, cell-based; details: Homo sapiens
Description: SANGER: Inhibition of human DB cell growth in a cell viability assay.

SW837 = type: functional, cell-based, Homo sapiens; details: Homo sapiens, SW837;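 also: growth inhibition of SW837 cells, determined with a cell viability assay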
Description: SANGER: Inhibition of human SW837 cell growth in a cell viability assay.

647-V = type: functional, cell-based, Homo sapiens; details: Homo sapiens, 647-V;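 also: growth inhibition of 647-V cells, read out with a cell viability assay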
Description: SANGER: Inhibition of human 647-V cell growth in a cell viability assay.

MN-60 = type: functional, cell-based; details: Homo sapiens;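 also: growth inhibition of the MN-60 cell line, determined with a cell viability assay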
Description: SANGER: Inhibition of human MN-60 cell growth in a cell viability assay.

KNS-81-FD = type: functional, cell-based, Homo sapiens; details: Homo sapiens, KNS-81-FD;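 also: growth inhibition of KNS-81-FD cells, read out with a cell viability assay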
Description: SANGER: Inhibition of human KNS-81-FD cell growth in a cell viability assay.

H4 = type: functional, cell-based; details: Homo sapiens
Description: SANGER: Inhibition of human H4 cell growth in a cell viability assay.

HOP-92 = type: functional, cell-based, Homo sapiens; details: Homo sapiens, HOP-92;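 also: cell viability readout, with IC50 reflecting inhibition of HOP-92 cell growth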
Description: SANGER: Inhibition of human HOP-92 cell growth in a cell viability assay.

LB1047-RCC = type: functional, cell-based, Homo sapiens; details: Homo sapiens, LB1047-RCC;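 also: inhibition of cell growth, determined with a cell viability assay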
Description: SANGER: Inhibition of human LB1047-RCC cell growth in a cell viability assay.

SF-539 = type: functional, cell-based, Homo sapiens; details: Homo sapiens, SF-539;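 also: Read-out is a cell viability assay, with IC50 reflecting inhibition of cell growth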
Description: SANGER: Inhibition of human SF539 cell growth in a cell viability assay.

SK-MES-1 = type: functional, cell-based, Homo sapiens; details: Homo sapiens, SK-MES-1;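 also: growth inhibition of human SK-MES-1 cells, read out with a cell viability assay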
Description: SANGER: Inhibition of human SK-MES-1 cell growth in a cell viability assay.

NB6 = type: functional, cell-based, Homo sapiens; details: Homo sapiens, NB6;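 also: growth inhibition of NB6 cells, read out by a cell viability assay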
Description: SANGER: Inhibition of human NB6 cell growth in a cell viability assay.

OVCAR-4 = type: functional, cell-based, Homo sapiens; details: Homo sapiens, OVCAR-4;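 also: growth inhibition of human OVCAR-4 cells, measured with a cell viability assay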
Description: SANGER: Inhibition of human OVCAR-4 cell growth in a cell viability assay.

OCUB-M = type: functional, cell-based, Homo sapiens; details: Homo sapiens, OCUB-M;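 also: growth inhibition of the cancer cell line, read out through a cell viability assay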
Description: SANGER: Inhibition of human OCUB-M cell growth in a cell viability assay.

VM-CUB-1 = type: functional, cell-based; details: Homo sapiens;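 also: cell viability assay measuring growth inhibition of the human VM-CUB-1 cell line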
Description: SANGER: Inhibition of human VM-CUB-1 cell growth in a cell viability assay.

HT-29 = type: functional, cell-based, Homo sapiens; details: Homo sapiens, HT-29;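 also: growth inhibition of human HT-29 cells, read out by a cell viability assay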
Description: SANGER: Inhibition of human HT-29 cell growth in a cell viability assay.

PA-1 = type: functional, cell-based, Homo sapiens; details: Homo sapiens, PA-1;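 also: IC50 for suppression of PA-1 cell proliferation, determined with a cell viability read-out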
Description: SANGER: Inhibition of human PA-1 cell growth in a cell viability assay.

MeWo = type: functional, cell-based, Homo sapiens; details: Homo sapiens, MeWo;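 also: growth inhibition of MeWo cells, determined by a cell viability readout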
Description: SANGER: Inhibition of human Mewo cell growth in a cell viability assay.

LB771-HNC = type: functional, cell-based, Homo sapiens; details: Homo sapiens, LB771-HNC;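 also: growth inhibition of LB771-HNC human cells, read out with a cell viability assay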
TE-1 = type: functional, cell-based, Homo sapiens; details: Homo sapiens, TE-1;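 also: growth inhibition of the human TE-1 cell line, read out with a cell viability assay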
Description: SANGER: Inhibition of human TE-1 cell growth in a cell viability assay.

SK-MEL-2 = type: functional, cell-based, Homo sapiens; details: Homo sapiens, SK-MEL-2
Description: SANGER: Inhibition of human SK-MEL-2 cell growth in a cell viability assay.

BT-474 = type: functional, cell-based, Homo sapiens; details: Homo sapiens, BT-474
Description: SANGER: Inhibition of human BT-474 cell growth in a cell viability assay.

OVCAR-5 = type: functional, cell-based, Homo sapiens; details: Homo sapiens, OVCAR-5;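 also: growth inhibition of human OVCAR-5 cells, read out with a cell viability assay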
Description: SANGER: Inhibition of human OVCAR-5 cell growth in a cell viability assay.

A253 cell line = type: functional, cell-based, Homo sapiens; details: Homo sapiens, A253;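 also: growth inhibition of A253 cells, read out with a cell viability assay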
Description: SANGER: Inhibition of human A253 cell growth in a cell viability assay.

MPP-89 = type: functional, cell-based, Homo sapiens; details: Homo sapiens, MPP-89;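 also: growth inhibition of human MPP-89 cells, read out with a cell viability assay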
Description: SANGER: Inhibition of human MPP-89 cell growth in a cell viability assay.

DMS-273 = type: functional, cell-based, Homo sapiens; details: Homo sapiens, DMS-273
Description: SANGER: Inhibition of human DMS-273 cell growth in a cell viability assay.

A3-KAW = type: functional, cell-based; details: Homo sapiens;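 also: growth inhibition of human A3-KAW cells, read out with a cell viability assay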
Description: SANGER: Inhibition of human A3-KAW cell growth in a cell viability assay.

UACC-893 = type: functional, cell-based, Homo sapiens; details: Homo sapiens, UACC-893
Description: SANGER: Inhibition of human UACC-893 cell growth in a cell viability assay.

NCI-H23 = type: functional, cell-based, Homo sapiens; details: Homo sapiens, NCI-H23;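 also: cell viability assay measuring growth inhibition of NCI-H23 cells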
SW872 = type: functional, cell-based, Homo sapiens; details: Homo sapiens, SW872;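 also: growth inhibition of SW872 cells, read out by a viability assay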
Description: SANGER: Inhibition of human SW872 cell growth in a cell viability assay.

CAL-54 = type: functional, cell-based, Homo sapiens; details: Homo sapiens, CAL-54;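 also: growth inhibition of CAL-54 cells, read out by a viability measurement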
Description: SANGER: Inhibition of human CAL-54 cell growth in a cell viability assay.

NCI-H1581 = type: functional, cell-based, Homo sapiens; details: Homo sapiens, NCI-H1581;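 also: cell growth inhibition read out by a viability assay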
Description: SANGER: Inhibition of human NCI-H1581 cell growth in a cell viability assay.

NCI-H69 = type: functional, cell-based; details: Homo sapiens;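 also: growth inhibition of the cell line, read out with a cell viability assay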
Description: SANGER: Inhibition of human NCI-H69 cell growth in a cell viability assay.

NOMO-1 = type: functional, cell-based; details: Homo sapiens;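 also: growth inhibition of human NOMO-1 cells measured by a cell viability assay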
Description: SANGER: Inhibition of human NOMO-1 cell growth in a cell viability assay.

IST-MES1 = type: functional, cell-based, Homo sapiens; details: Homo sapiens, IST-MES1;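 also: growth inhibition of IST-MES1 cells, measured with a cell viability assay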
Description: SANGER: Inhibition of human IST-MES1 cell growth in a cell viability assay.

D-502MG = type: functional, cell-based, Homo sapiens; details: Homo sapiens, D-502MG
Description: SANGER: Inhibition of human D-502MG cell growth in a cell viability assay.

KYSE-70 cell line = type: functional, cell-based, Homo sapiens; details: Homo sapiens, KYSE-70;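 also: cell viability assay read-out, with IC50 expressing suppression of KYSE-70 cell growth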
Description: SANGER: Inhibition of human KYSE-70 cell growth in a cell viability assay.

MHH-NB-11 = type: functional, cell-based, Homo sapiens; details: Homo sapiens, MHH-NB-11;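 also: growth inhibition of human MHH-NB-11 cells, read out by a cell viability assay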
Description: SANGER: Inhibition of human MHH-NB-11 cell growth in a cell viability assay.

HT1197 = type: functional, cell-based, Homo sapiens, HT-1197; details: Homo sapiens, HT1197
Description: SANGER: Inhibition of human HT-1197 cell growth in a cell viability assay.

ESS-1 = type: functional, cell-based, Homo sapiens; details: Homo sapiens, ESS-1;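 also: growth inhibition of human ESS-1 cells, read out by a cell viability assay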
Description: SANGER: Inhibition of human ESS-1 cell growth in a cell viability assay.

MOLT-16 = type: functional, cell-based; details: Homo sapiens;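 also: growth inhibition of human MOLT-16 cells, read out with a cell viability assay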
Description: SANGER: Inhibition of human MOLT-16 cell growth in a cell viability assay.

HCC1419 = type: functional, cell-based, Homo sapiens; details: Homo sapiens, HCC1419;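 also: growth inhibition of human HCC1419 cells, read out as cell viability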
Description: SANGER: Inhibition of human HCC1419 cell growth in a cell viability assay.

MZ2-MEL = type: functional, cell-based, Homo sapiens; details: Homo sapiens, MZ2-MEL;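 also: growth inhibition of MZ2-MEL cells read out with a cell viability assay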
Description: SANGER: Inhibition of human MZ2-MEL cell growth in a cell viability assay.

5637 = type: functional, cell-based, Homo sapiens; details: Homo sapiens
Description: SANGER: Inhibition of human 5637 cell growth in a cell viability assay.

MIA PaCa-2 = type: functional, cell-based, Homo sapiens; details: Homo sapiens, MIA PaCa-2;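 also: growth inhibition of MIA PaCa-2 cells, read out with a cell viability assay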
Description: SANGER: Inhibition of human MIA-PaCa-2 cell growth in a cell viability assay.

HPAF-II = type: functional, cell-based, Homo sapiens; details: Homo sapiens, HPAF-II;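 also: growth inhibition of HPAF-II cells, read out with a cell viability assay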
Description: SANGER: Inhibition of human HPAF-II cell growth in a cell viability assay.

P12-Ichikawa = type: functional, cell-based; details: Homo sapiens
SK-MEL-28 = type: functional, cell-based; details: Homo sapiens;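 also: growth inhibition of human SK-MEL-28 cells, read out with a cell viability assay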
Description: SANGER: Inhibition of human SK-MEL-28 cell growth in a cell viability assay.

NCI-H1793 = type: functional, cell-based, Homo sapiens; details: Homo sapiens, NCI-H1793;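 also: cell growth inhibition, read out by a cell viability assay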
Description: SANGER: Inhibition of human NCI-H1793 cell growth in a cell viability assay.

ES6 = type: functional, cell-based, Homo sapiens; details: Homo sapiens, ES6;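 also: growth inhibition of human ES6 cells, read out with a cell viability assay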
Description: SANGER: Inhibition of human ES6 cell growth in a cell viability assay.

TGW = type: functional, cell-based; details: Homo sapiens;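 also: growth inhibition of human TGW cells, read out with a cell viability assay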
Description: SANGER: Inhibition of human TGW cell growth in a cell viability assay.

CP66-MEL = type: functional, cell-based, Homo sapiens; details: Homo sapiens, CP66-MEL;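 also: growth inhibition of CP66-MEL cells determined in a cell viability assay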
Description: SANGER: Inhibition of human CP66-MEL cell growth in a cell viability assay.

COc1ccc(C2=N[C@@H](c3ccc(Cl)cc3)[C@@H](c3ccc(Cl)cc3)N2C(=O)N2CCNC(=O)C2)c(OC(C)C)c1 [NUTLIN-3]
IC50 (DB): > 8 µM | IC50 (SW837): > 8 µM | IC50 (647-V): > 8 µM | IC50 (MN-60): 3.44 µM | IC50 (KNS-81-FD): 6.76 µM | IC50 (H4): 0.663 µM | IC50 (HOP-92): > 8 µM | IC50 (LB1047-RCC): > 8 µM | IC50 (SF-539): > 8 µM | IC50 (SK-MES-1): > 8 µM | IC50 (NB6): > 8 µM | IC50 (OVCAR-4): > 8 µM | IC50 (OCUB-M): > 8 µM | IC50 (VM-CUB-1): > 8 µM | IC50 (HT-29): > 8 µM | IC50 (PA-1): 0.871 µM | IC50 (MeWo): > 8 µM | IC50 (LB771-HNC): > 8 µM | IC50 (TE-1): > 8 µM | IC50 (SK-MEL-2): > 8 µM | IC50 (BT-474): > 8 µM | IC50 (OVCAR-5): > 8 µM | IC50 (A253 cell line): > 8 µM | IC50 (MPP-89): > 8 µM | IC50 (DMS-273): > 8 µM | IC50 (A3-KAW): 2.62 µM | IC50 (UACC-893): > 8 µM | IC50 (NCI-H23): > 8 µM | IC50 (SW872): > 8 µM | IC50 (CAL-54): 4.53 µM | IC50 (NCI-H1581): > 8 µM | IC50 (NCI-H69): > 8 µM | IC50 (NOMO-1): > 8 µM | IC50 (IST-MES1): 4.41 µM | IC50 (D-502MG): 2.97 µM | IC50 (KYSE-70 cell line): > 8 µM | IC50 (MHH-NB-11): 3.27 µM | IC50 (HT1197): > 8 µM | IC50 (ESS-1): > 8 µM | IC50 (MOLT-16): 1.79 µM | IC50 (HCC1419): > 8 µM | IC50 (MZ2-MEL): 4.5 µM | IC50 5637: > 8 µM | IC50 (MIA PaCa-2): > 8 µM | IC50 (HPAF-II): > 8 µM | IC50 (P12-Ichikawa): > 8 µM | IC50 (SK-MEL-28): > 8 µM | IC50 (NCI-H1793): > 8 µM | IC50 (ES6): > 8 µM | IC50 (TGW): > 8 µM

O=C(NOCC1CC1)c1ccc(F)c(F)c1Nc1ccc(I)cc1Cl [CI-1040]
IC50 (DB): 2.59 µM | IC50 (SW837): > 10 µM | IC50 (647-V): > 10 µM | IC50 (MN-60): > 10 µM | IC50 (KNS-81-FD): > 10 µM | IC50 (H4): 5.04 µM | IC50 (HOP-92): 4.26 µM | IC50 (LB1047-RCC): 4.74 µM | IC50 (SF-539): > 10 µM | IC50 (SK-MES-1): 5.84 µM | IC50 (NB6): > 10 µM | IC50 (OVCAR-4): > 10 µM | IC50 (OCUB-M): > 10 µM | IC50 (VM-CUB-1): > 10 µM | IC50 (HT-29): 5.98 µM | IC50 (PA-1): 5.64 µM | IC50 (MeWo): 1.2 µM | IC50 (LB771-HNC): > 10 µM | IC50 (TE-1): > 10 µM | IC50 (SK-MEL-2): 1.57 µM | IC50 (BT-474): > 10 µM | IC50 (OVCAR-5): 1.78 µM | IC50 (MPP-89): > 10 µM | IC50 (DMS-273): > 10 µM | IC50 (A3-KAW): > 10 µM | IC50 (UACC-893): > 10 µM | IC50 (NCI-H23): > 10 µM | IC50 (SW872): > 10 µM | IC50 (CAL-54): 5.03 µM | IC50 (NCI-H1581): 8.26 µM | IC50 (NCI-H69): > 10 µM | IC50 (NOMO-1): 0.257 µM | IC50 (IST-MES1): > 10 µM | IC50 (D-502MG): > 10 µM | IC50 (CP66-MEL): 0.488 µM | IC50 (KYSE-70 cell line): > 10 µM | IC50 (MHH-NB-11): 6.85 µM | IC50 (HT1197): > 10 µM | IC50 (ESS-1): > 10 µM | IC50 (MOLT-16): > 10 µM | IC50 (HCC1419): > 10 µM | IC50 (MZ2-MEL): 2.11 µM | IC50 5637: > 10 µM | IC50 (MIA PaCa-2): 3.01 µM | IC50 (HPAF-II): 3.75 µM | IC50 (P12-Ichikawa): 0.612 µM | IC50 (SK-MEL-28): 0.304 µM | IC50 (NCI-H1793): > 10 µM | IC50 (ES6): > 10 µM

CN(C)C/C=C/C(=O)Nc1cc2c(Nc3ccc(F)c(Cl)c3)ncnc2cc1O[C@H]1CCOC1 [AFATINIB]
IC50 (DB): > 0.5 µM | IC50 (SW837): > 0.5 µM | IC50 (647-V): > 0.5 µM | IC50 (MN-60): > 0.5 µM | IC50 (KNS-81-FD): > 0.5 µM | IC50 (H4): > 0.5 µM | IC50 (HOP-92): > 0.5 µM | IC50 (LB1047-RCC): > 0.5 µM | IC50 (SF-539): > 0.5 µM | IC50 (SK-MES-1): > 0.5 µM | IC50 (NB6): > 0.5 µM | IC50 (OVCAR-4): > 0.5 µM | IC50 (OCUB-M): > 0.5 µM | IC50 (VM-CUB-1): > 0.5 µM | IC50 (HT-29): > 0.5 µM | IC50 (PA-1): > 0.5 µM | IC50 (MeWo): > 0.5 µM | IC50 (LB771-HNC): > 0.5 µM | IC50 (TE-1): > 0.5 µM | IC50 (SK-MEL-2): > 0.5 µM | IC50 (BT-474): 0.0499 µM | IC50 (OVCAR-5): > 0.5 µM | IC50 (MPP-89): > 0.5 µM | IC50 (DMS-273): > 0.5 µM | IC50 (A3-KAW): > 0.5 µM | IC50 (UACC-893): 0.119 µM | IC50 (NCI-H23): > 0.5 µM | IC50 (SW872): > 0.5 µM | IC50 (CAL-54): > 0.5 µM | IC50 (NCI-H1581): > 0.5 µM | IC50 (NCI-H69): 0.215 µM | IC50 (NOMO-1): > 0.5 µM | IC50 (IST-MES1): > 0.5 µM | IC50 (D-502MG): > 0.5 µM | IC50 (CP66-MEL): > 0.5 µM | IC50 (KYSE-70 cell line): > 0.5 µM | IC50 (MHH-NB-11): > 0.5 µM | IC50 (HT1197): > 0.5 µM | IC50 (ESS-1): > 0.5 µM | IC50 (MOLT-16): > 0.5 µM | IC50 (HCC1419): 0.364 µM | IC50 (MZ2-MEL): > 0.5 µM | IC50 5637: > 0.5 µM | IC50 (MIA PaCa-2): > 0.5 µM | IC50 (HPAF-II): > 0.5 µM | IC50 (P12-Ichikawa): > 0.5 µM | IC50 (SK-MEL-28): > 0.5 µM | IC50 (NCI-H1793): > 0.5 µM | IC50 (ES6): > 0.5 µM
